Test results from US20170114030A1, “COMPOSITION WITH HIGH CONTENT OF CYCLIC DIPEPTIDE” (SUNTORY HOLDINGS LIMITED, priority 2014, published 2017).

System: NCI-H716 cells
Assay: In vitro GLP-1 secretion-accelerating action (active GLP-1 ELISA)
Assay type: cell-based
Conditions: for Significant difference (p < 0.05) vs control group, amount of active GLP-1 secreted: 1 hour, Student's t-test; for Amount of active GLP-1 secreted (relative value to control group as 100), Average value: after 1 hour, group with no cyclic dipeptide = 100
Experimental: In the Test Examples below, data were represented as average value±standard error. In Test Examples 1, 2, and 3, a Student's t-test was used for a statistical test, and in other Test Examples, one-way ANOVA was carried out for dispersion analysis followed by a multiple comparison test by using a Dunnet's test. […] All of these analyses were carried out by using an SPSS for Windows release 17.0 (manufactured by SPSS Inc.).
Among the cyclic dipeptides, 92 highly water-soluble cyclic dipeptides were used in the following experiment. In each well of a Poly-L-Lysine 96-well plate, NCI-H716 cells suspended in 100 μL of a DMEM (with 10% FBS, 2 mM glutamine, and 1% antibiotics added in advance) were seeded at 0.5×10^5 cells/well, and cultured in a CO2 incubator (manufactured by ESPEC CORP.) for 48 hours. After washing with PBS(+), 100 μL of a PBS(+) solution with each cyclic dipeptide at a final concentration of 10 mM and 10 μM of Sitagliptin phosphate added therein was added to the cells. After 1 hour, the resultant solution was recovered, and the amount of active GLP-1 in the solution was measured by using the ELISA kit. In the analysis, the amount of active GLP-1 for a group with no cyclic dipeptide added was defined as 100, and relative values thereto were used.
In each Table, cyclic dipeptides for which an in vitro active GLP-1 secretion-accelerating activity was found and was not found are listed.

[1] = Experiment 5, cyclic dipeptide 10 mM with 10 μM Sitagliptin phosphate
[2] = Experiment 3, cyclic dipeptide 10 mM with 10 μM Sitagliptin phosphate
[3] = Experiment 2, cyclic dipeptide 10 mM with 10 μM Sitagliptin phosphate
[4] = Experiment 4, cyclic dipeptide 10 mM with 10 μM Sitagliptin phosphate
[5] = Experiment 1, cyclic dipeptide 10 mM with 10 μM Sitagliptin phosphate

| SMILES | Significant difference (p < 0.05) vs control group, amount of active GLP-1 secreted (Experiment 3, 10 mM) | Amount of active GLP-1 secreted (relative value to control group as 100), Average value [2] | other results |
| --- | --- | --- | --- |
| O=C1CNC(=O)C(Cc2c[nH]cn2)N1 (stereo not shown) [compound 27] |  |  | Significant difference (p < 0.05) vs control group, amount of active GLP-1 secreted (Experiment 5, 10 mM): No; Amount of active GLP-1 secreted (relative value to control group as 100), Average value [1]: 82 |
| CC1NC(=O)C(CCC(=O)O)NC1=O (stereo not shown) [compound 113] | No | 157 |  |
| CC(C)C1NC(=O)C(CCCCN)NC1=O (stereo not shown) [compound 99] | Yes | 532 |  |
| O=C1NCC(=O)N2CCCC12 (stereo not shown) [compound 4] |  |  | Significant difference (p < 0.05) vs control group, amount of active GLP-1 secreted (Experiment 5, 10 mM): Yes; Amount of active GLP-1 secreted (relative value to control group as 100), Average value [1]: 157 |
| O=C1CNC(=O)C(CO)N1 (stereo not shown) [compound 154] | No | 116 |  |
| CC(C)C[C@@H]1NC(=O)[C@H](CCCCN)NC1=O [compound 68] |  |  | Significant difference (p < 0.05) vs control group, amount of active GLP-1 secreted (Experiment 2, 10 mM): No; Amount of active GLP-1 secreted (relative value to control group as 100), Average value [3]: 208 |
| CC(O)C1NC(=O)C(CC(N)=O)NC1=O (stereo not shown) [compound 166] | No | 149 |  |
| CC1NC(=O)C(CC(=O)O)NC1=O (stereo not shown) [compound 153] | No | 94 |  |
| NCCCCC1NC(=O)C(CO)NC1=O (stereo not shown) [compound 98] | Yes | 71 |  |
| NCCCCC1NC(=O)C(CCC(=O)O)NC1=O (stereo not shown) [compound 97] | No | 66 |  |
| O=C(O)CCC1NC(=O)C(CO)NC1=O (stereo not shown) [compound 192] |  |  | Amount of active GLP-1 secreted (relative value to control group as 100), Average value [4]: 993 |
| N=C(N)NCCCC1NC(=O)CNC1=O (stereo not shown) [compound 117] | No | 98 |  |
| CSCCC1NC(=O)C(CCC(N)=O)NC1=O (stereo not shown) [compound 186] |  |  | Significant difference (p < 0.05) vs control group, amount of active GLP-1 secreted (Experiment 4, 10 mM): Yes; Amount of active GLP-1 secreted (relative value to control group as 100), Average value [4]: 191 |
| CC(C)CC1NC(=O)CNC1=O (stereo not shown) [compound 21] |  |  | Significant difference (p < 0.05) vs control group, amount of active GLP-1 secreted (Experiment 5, 10 mM): No; Amount of active GLP-1 secreted (relative value to control group as 100), Average value [1]: 131 |
| O=C(O)CCC1NC(=O)CNC1=O (stereo not shown) [compound 24] |  |  | Significant difference (p < 0.05) vs control group, amount of active GLP-1 secreted (Experiment 5, 10 mM): No; Amount of active GLP-1 secreted (relative value to control group as 100), Average value [1]: 89 |
| CC1NC(=O)C(CC(N)=O)NC1=O (stereo not shown) [compound 124] | No | 116 |  |
| O=C1N[C@@H](CO)C(=O)N2CCC[C@@H]12 [compound 46] |  |  | Significant difference (p < 0.05) vs control group, amount of active GLP-1 secreted (Experiment 2, 10 mM): No; Amount of active GLP-1 secreted (relative value to control group as 100), Average value [3]: 139 |
| CC(O)C1NC(=O)C(CC(=O)O)NC1=O (stereo not shown) [compound 165] | No | 140 |  |
| CC(O)C1NC(=O)C(CCCNC(=N)N)NC1=O (stereo not shown) [compound 168] | No | 142 |  |
| N=C(N)NCCCC1NC(=O)C(Cc2cnc[nH]2)NC1=O (stereo not shown) [compound 112] | No | 106 |  |

| SMILES | Significant difference (p < 0.05) vs control group, amount of active GLP-1 secreted (Experiment 3, 10 mM) | Amount of active GLP-1 secreted (relative value to control group as 100), Average value [2] | other results |
| --- | --- | --- | --- |
| NCCCC[C@@H]1NC(=O)[C@H](CCCCN)NC1=O [compound 40] |  |  | Significant difference (p < 0.05) vs control group, amount of active GLP-1 secreted (Experiment 1, 10 mM): No; Amount of active GLP-1 secreted (relative value to control group as 100), Average value [5]: 164 |
| NC(=O)CC1NC(=O)C(CCC(=O)O)NC1=O (stereo not shown) [compound 129] | No | 118 |  |
| NC(=O)CC1NC(=O)C(CC(=O)O)NC1=O (stereo not shown) [compound 170] | No | 125 |  |
| N=C(N)NCCCC1NC(=O)C(Cc2c[nH]c3ccccc23)NC1=O (stereo not shown) [compound 189] |  |  | Significant difference (p < 0.05) vs control group, amount of active GLP-1 secreted (Experiment 4, 10 mM): Yes; Amount of active GLP-1 secreted (relative value to control group as 100), Average value [4]: 314 |
| NCCCCC1NC(=O)C(CC(N)=O)NC1=O (stereo not shown) [compound 101] | Yes | 250 |  |
| NC(=O)CCC1NC(=O)CNC1=O (stereo not shown) [compound 36] |  |  | Significant difference (p < 0.05) vs control group, amount of active GLP-1 secreted (Experiment 5, 10 mM): No; Amount of active GLP-1 secreted (relative value to control group as 100), Average value [1]: 75 |
| N=C(N)NCCCC1NC(=O)C(CCCNC(=N)N)NC1=O (stereo not shown) [compound 212] |  |  | Significant difference (p < 0.05) vs control group, amount of active GLP-1 secreted (Experiment 4, 10 mM): Yes; Amount of active GLP-1 secreted (relative value to control group as 100), Average value [4]: 1050 |
| NC(=O)CCC1NC(=O)CNC1=O (stereo not shown) [compound 126] | Yes | 210 |  |
| N=C(N)NCCCC1NC(=O)C(CC(N)=O)NC1=O (stereo not shown) [compound 197] |  |  | Significant difference (p < 0.05) vs control group, amount of active GLP-1 secreted (Experiment 4, 10 mM): Yes; Amount of active GLP-1 secreted (relative value to control group as 100), Average value [4]: 359 |
| NC(=O)CCC1NC(=O)C(CCC(=O)O)NC1=O (stereo not shown) [compound 130] | No | 120 |  |
| NC(=O)CC1NC(=O)C(Cc2cnc[nH]2)NC1=O (stereo not shown) [compound 111] | Yes | 341 |  |
| O=C1N[C@@H](Cc2c[nH]c3ccccc23)C(=O)N[C@H]1CO [compound 78] |  |  | Significant difference (p < 0.05) vs control group, amount of active GLP-1 secreted (Experiment 2, 10 mM): No; Amount of active GLP-1 secreted (relative value to control group as 100), Average value [3]: 119 |
| O=C(O)CC[C@@H]1NC(=O)[C@@H]2CCCN2C1=O [compound 45] |  |  | Significant difference (p < 0.05) vs control group, amount of active GLP-1 secreted (Experiment 1, 10 mM): No; Amount of active GLP-1 secreted (relative value to control group as 100), Average value [5]: 145 |
| NCCCC[C@@H]1NC(=O)CNC1=O [compound 96] | Yes | 133 |  |
| O=C(O)CC1NC(=O)CNC1=O (stereo not shown) [compound 32] |  |  | Significant difference (p < 0.05) vs control group, amount of active GLP-1 secreted (Experiment 5, 10 mM): Yes; Amount of active GLP-1 secreted (relative value to control group as 100), Average value [1]: 12 |
| NCCCCC1NC(=O)C(CCC(N)=O)NC1=O (stereo not shown) [compound 102] | No | 112 |  |
| CC(O)C1NC(=O)C(CCC(N)=O)NC1=O (stereo not shown) [compound 167] | No | 156 |  |
| NC(=O)CCC1NC(=O)C(CO)NC1=O (stereo not shown) [compound 136] | No | 251 |  |
| NC(=O)CC[C@@H]1NC(=O)[C@H](Cc2ccccc2)NC1=O [compound 65] |  |  | Significant difference (p < 0.05) vs control group, amount of active GLP-1 secreted (Experiment 2, 10 mM): Yes; Amount of active GLP-1 secreted (relative value to control group as 100), Average value [3]: 227 |
| N=C(N)NCCCC1NC(=O)C(CO)NC1=O (stereo not shown) [compound 159] | Yes | 135 |  |
